ChEMBL document CHEMBL2010789, “Identification of 3-acyl-2-phenylamino-1,4-dihydroquinolin-4-one derivatives as inhibitors of the phosphatase SerB653 in Porphyromonas gingivalis, implicated in periodontitis” (Bioorg Med Chem Lett, 2012)
Converted amounts (≈) assume the structure as drawn.

Experiments:
[1] = Inhibition of Porphyromonas gingivalis recombinant SerB653 phosphatase expressed in Escherichia coli BL21 using phosphoserine as substrate after 1 hr by malachite green colorimetric assay
Porphyromonas gingivalis [2] = experiment: Inhibition of Porphyromonas gingivalis recombinant SerB653 phosphatase expressed in Escherichia coli BL21 using phosphoserine as substrate at 50 uM after 1 hr by malachite green colorimetric assay
[3] = Inhibition of Porphyromonas gingivalis recombinant SerB653 phosphatase expressed in Escherichia coli BL21 using phosphoserine as substrate measured every 10 secs by malachite green colorimetric assay
Porphyromonas gingivalis [4] = experiment: Antibacterial activity against Porphyromonas gingivalis ATCC 33277 after 2 hrs by broth microdilution method; format: functional; conditions: ATCC 33277, 2 h

Structure (SMILES) | IC50 [1] | inhibition (Porphyromonas gingivalis [2]) | Ki [3] | MIC (Porphyromonas gingivalis [4])
CC(C)CC(=O)c1c(Nc2ccc(Cl)cc2F)[nH]c2c(Cl)ccc([N+](=O)[O-])c2c1=O | 19.3 µM | 97.3% |  | 
CC(=O)c1c(Nc2ccc(F)cc2)[nH]c2c([N+](=O)[O-])cc(Cl)cc2c1=O |  | 9.3% |  | 
CC(=O)c1c(Nc2ccc(Cl)cc2Cl)[nH]c2c(C(F)(F)F)cccc2c1=O | 18.6 µM | 96.3% |  | 
CC(C)C(=O)c1c(Nc2cc(Cl)cc(Cl)c2)[nH]c2c(Cl)ccc(Cl)c2c1=O | 9.2 µM | 94.9% | 3300 nM | 
CCC(=O)c1c(Nc2ccc(Cl)c(Cl)c2)[nH]c2c(Cl)ccc([N+](=O)[O-])c2c1=O | 11.6 µM | 98.5% | 4100 nM | 
CC(C)C(=O)c1c(Nc2cc(Cl)ccc2Cl)[nH]c2c(Cl)ccc([N+](=O)[O-])c2c1=O | 19 µM | 97.3% |  | 
CCC(=O)c1c(Nc2ccc(Cl)cc2Cl)[nH]c2c(Cl)ccc([N+](=O)[O-])c2c1=O | 19.6 µM | 97.4% |  | 
CCC(=O)c1c(Nc2cc(Cl)cc(Cl)c2)[nH]c2c(Cl)ccc([N+](=O)[O-])c2c1=O | 6.9 µM | 97.4% | 2500 nM | 
O=C(c1c(Nc2ccc(Cl)cc2Cl)[nH]c2c(Cl)ccc([N+](=O)[O-])c2c1=O)C1CC1 | 17.6 µM | 98.1% |  | 
CC(C)C(=O)c1c(Nc2ccc(Cl)cc2F)[nH]c2c(Cl)ccc([N+](=O)[O-])c2c1=O | 16.5 µM | 94.3% |  | 
O=C(c1c(Nc2cc(Cl)ccc2Cl)[nH]c2c(Cl)ccc([N+](=O)[O-])c2c1=O)C1CC1 | 18.7 µM | 98.2% |  | 
COc1cccc(Nc2[nH]c3c(Cl)c(Cl)ccc3c(=O)c2C(C)=O)c1 |  | 3.6% |  | 
CC(=O)c1c(Nc2ccc(F)cc2F)[nH]c2c(Cl)ccc(F)c2c1=O |  | 9.1% |  | 
O=C(c1c(Nc2ccc(Cl)c(Cl)c2)[nH]c2c(Cl)ccc(Cl)c2c1=O)C1CC1 | 11.5 µM | 89.7% | 4100 nM | 
CC(C)C(=O)c1c(Nc2ccc(Cl)cc2Cl)[nH]c2c(Cl)ccc(Cl)c2c1=O | 8 µM | 97.7% | 2900 nM | 
CC(=O)c1c(Nc2ccc(C(F)(F)F)cc2)[nH]c2c(C(F)(F)F)cc(Cl)cc2c1=O | 7 µM | 97.7% | 2500 nM | 
CC(=O)c1c(Nc2ccc(Br)cc2)[nH]c2c(F)ccc(F)c2c1=O |  | 1.4% |  | 
COc1ccc(Nc2[nH]c3c([N+](=O)[O-])cc(Cl)cc3c(=O)c2C(C)=O)cc1 |  | 6.2% |  | 
CC(=O)c1c(Nc2cccc(C)c2)[nH]c2c(Cl)c(Cl)ccc2c1=O |  | 1.6% |  | 
CC(C)C(=O)c1c(Nc2cccc(Cl)c2Cl)[nH]c2c(Cl)ccc([N+](=O)[O-])c2c1=O | 19.1 µM | 96.3% |  | 
CC(=O)c1c(Nc2ccc(F)cc2F)[nH]c2c(C)ccc(Cl)c2c1=O |  | 2.3% |  | 

Structure (SMILES) | IC50 [1] | inhibition (Porphyromonas gingivalis [2]) | Ki [3] | MIC (Porphyromonas gingivalis [4])
CC(=O)c1c(Nc2cc(C(F)(F)F)cc(C(F)(F)F)c2)[nH]c2c(F)ccc(F)c2c1=O | 19.4 µM | 95% |  | 
CC(C)CC(=O)c1c(Nc2cc(Cl)cc(Cl)c2)[nH]c2c(Cl)ccc([N+](=O)[O-])c2c1=O | 18.7 µM | 99.1% |  | 
CCC(=O)c1c(Nc2cc(F)cc(F)c2)[nH]c2c(Cl)ccc([N+](=O)[O-])c2c1=O | 19.4 µM | 92.7% |  | 
CC(=O)c1c(Nc2ccc([N+](=O)[O-])cc2)[nH]c2c([N+](=O)[O-])cc(Cl)cc2c1=O | 14.5 µM | 87% |  | 
CCC(=O)c1c(Nc2ccc(Cl)cc2F)[nH]c2c(Cl)ccc([N+](=O)[O-])c2c1=O | 19.8 µM | 94.9% |  | 
CC(=O)c1c(Nc2cccc(Cl)c2Cl)[nH]c2c(Cl)ccc([N+](=O)[O-])c2c1=O | 19.6 µM | 96.7% |  | 
CCC(=O)c1c(Nc2cc(Cl)ccc2Cl)[nH]c2c(Cl)ccc([N+](=O)[O-])c2c1=O | 4 µM | 97.8% | 1400 nM | 0.05 µg/mL (≈ 0.113 µM)
O=C(c1c(Nc2cc(Cl)cc(Cl)c2)[nH]c2c(Cl)ccc([N+](=O)[O-])c2c1=O)C1CC1 | 17 µM | 99.4% |  | 
CC(=O)c1c(Nc2ccccc2)[nH]c2c([N+](=O)[O-])cc(Cl)cc2c1=O |  | 3.1% |  | 
CC(=O)c1c(Nc2cc(Cl)cc(Cl)c2)[nH]c2c(Cl)ccc([N+](=O)[O-])c2c1=O | 18.8 µM | 99.3% |  | 
CC(=O)c1c(Nc2ccc(Cl)cc2)[nH]c2c(C(F)(F)F)cc(Cl)cc2c1=O | 7.5 µM | 95.7% | 2700 nM | 
CC(=O)c1c(Nc2ccccc2Cl)[nH]c2c(C(F)(F)F)cc(Cl)cc2c1=O | 16.8 µM | 89.1% |  | 
O=C(c1c(Nc2ccc(F)cc2F)[nH]c2c(Cl)ccc([N+](=O)[O-])c2c1=O)C1CC1 | 11.3 µM | 85.6% | 4000 nM | 
O=C(c1c(Nc2cccc(Cl)c2Cl)[nH]c2c(Cl)ccc([N+](=O)[O-])c2c1=O)C1CC1 | 12.6 µM | 98.5% | 4500 nM | 
CC(=O)c1c(Nc2cc(F)ccc2F)[nH]c2c(F)ccc(F)c2c1=O |  | 7.9% |  | 
CC(=O)c1c(Nc2cc(F)cc(F)c2)[nH]c2c(Cl)c(Cl)ccc2c1=O | 18.6 µM | 93.5% |  | 
CC(C)CC(=O)c1c(Nc2cccc(Cl)c2Cl)[nH]c2c(Cl)ccc([N+](=O)[O-])c2c1=O | 18.9 µM | 98.6% |  | 
CC(C)CC(=O)c1c(Nc2ccc(Cl)cc2Cl)[nH]c2c(Cl)ccc([N+](=O)[O-])c2c1=O | 19.6 µM | 97.8% |  | 
CC(C)C(=O)c1c(Nc2ccc(F)cc2F)[nH]c2c(Cl)ccc([N+](=O)[O-])c2c1=O | 12.3 µM | 80.1% |  | 
CC(=O)c1c(Nc2cc(Cl)ccc2Cl)[nH]c2c(Cl)ccc(Cl)c2c1=O | 16.7 µM | 86.6% |  | 
CC(=O)c1c(Nc2cc(Cl)ccc2Cl)[nH]c2c(Cl)ccc([N+](=O)[O-])c2c1=O | 19 µM | 98.3% |  | 

Structure (SMILES) | IC50 [1] | inhibition (Porphyromonas gingivalis [2]) | Ki [3] | MIC (Porphyromonas gingivalis [4])
CC(C)CC(=O)c1c(Nc2cc(F)ccc2F)[nH]c2c(Cl)ccc(Cl)c2c1=O | 19.3 µM | 91% |  | 
COc1cccc(Nc2[nH]c3c([N+](=O)[O-])cc(Cl)cc3c(=O)c2C(C)=O)c1 |  | 0% |  | 
CC(=O)c1c(Nc2ccc(C(C)(C)C)cc2)[nH]c2c([N+](=O)[O-])cc(Cl)cc2c1=O |  | 0% |  | 
CC(C)CC(=O)c1c(Nc2cc(Cl)ccc2Cl)[nH]c2c(Cl)ccc([N+](=O)[O-])c2c1=O | 18.8 µM | 98.8% |  | 
CC(=O)c1c(Nc2ccc(F)cc2F)[nH]c2c(F)ccc(F)c2c1=O |  | 0% |  | 
CC(=O)c1c(Nc2cc(F)cc(F)c2)[nH]c2c([N+](=O)[O-])cc(Cl)cc2c1=O | 17.6 µM | 92.2% |  | 
CC(C)C(=O)c1c(Nc2cc(F)cc(F)c2)[nH]c2c(Cl)ccc([N+](=O)[O-])c2c1=O | 19.1 µM | 94.7% |  | 
CC(=O)c1c(Nc2cccc(F)c2C)[nH]c2c(F)ccc(F)c2c1=O |  | 0% |  | 
CC(=O)c1c(Nc2ccc(Cl)cc2Cl)[nH]c2c(C(F)(F)F)cc(Cl)cc2c1=O | 7 µM | 99% | 2500 nM | 
CC(C)CC(=O)c1c(Nc2cc(F)cc(F)c2)[nH]c2c(Cl)ccc([N+](=O)[O-])c2c1=O | 16.3 µM | 97.5% |  | 
CC(=O)c1c(Nc2cc(Cl)cc(Cl)c2)[nH]c2c(C)ccc(Cl)c2c1=O |  | 8.6% |  | 
CC(=O)c1c(Nc2ccc(C)cc2)[nH]c2c([N+](=O)[O-])cc(Cl)cc2c1=O |  | 2.2% |  | 
CC(=O)c1c(Nc2ccccc2)[nH]c2c(Cl)c(Cl)ccc2c1=O |  | 4.8% |  | 
CC(=O)c1c(Nc2cc(C(F)(F)F)cc(C(F)(F)F)c2)[nH]c2c(Cl)ccc(F)c2c1=O | 19.3 µM | 98.5% |  | 
CC(=O)c1c(Nc2ccc(F)c(F)c2F)[nH]c2c(Cl)ccc(C)c2c1=O |  | 32.4% |  | 
CC(=O)c1c(Nc2cc(F)cc(F)c2)[nH]c2c(F)ccc(F)c2c1=O |  | 5.9% |  | 
CC(C)C(=O)c1c(Nc2cc(Cl)cc(Cl)c2)[nH]c2c(Cl)ccc([N+](=O)[O-])c2c1=O | 17.9 µM | 99.1% |  | 
O=C(c1c(Nc2ccc(Cl)cc2F)[nH]c2c(Cl)ccc([N+](=O)[O-])c2c1=O)C1CC1 | 18.7 µM | 95.5% |  | 
CC(=O)c1c(Nc2ccc(Cl)cc2F)[nH]c2c(Cl)ccc(C)c2c1=O |  | 24.5% |  | 
